Reference: patent publication US11596939B2, “Lamp component distribution in a microfluid cell” (priority 2017, dated 2023)

Legend:
LAMP reaction [1] = experiment: ProClin950 in BlisterBuffer, effect on LAMP reaction; type: biochemical; conditions: added to BlisterBuffer
Source text: Additionally, we added ProClin950 a biozide to the BlisterBuffer in order to inhibit microbial growth.

target DNA = experiment: Sample pre-treatment with antimicrobial peptides before isothermal amplification; conditions: sample pre-treatment with peptide
LAMP reaction [2] = experiment: Effect of antimicrobial peptides on the amplification (LAMP) reaction; type: biochemical
Source text: The use of peptides with higher concentrations may inhibit the amplification reaction in certain extent in comparison of ideal conditions, e.g. pure water (MQ). This is a drawback of use of peptides. However, not all the peptides have an equal effect.
This effect is explained by secondary property of peptides, which is an anti-inhibitory effect. Meaning, that in additionally to lysis effect, peptides also neutralizing inhibitory substances in real samples.

| Compound | increase in isothermal amplification efficiency (target DNA) | other results |
| --- | --- | --- |
| Cn1sccc1=O [ProClin950, 2-Methyl-4-isothiazolin-3-one] | – | inhibition of the LAMP reaction (LAMP reaction [1]): did not inhibit |
| CC[C@H](C)[C@H](NC(=O)CN)C(=O)NCC(=O)N[C@@H](C)C(=O)N[C@H](C(=O)N[C@@H](CC(C)C)C(=O)N[C@@H](CCCCN)C(=O)N[C@H](C(=O)N[C@@H](CC(C)C)C(=O)N[C@H](C(=O)N[C@H](C(=O)NCC(=O)N[C@@H](CC(C)C)C(=O)N1CCC[C@H]1C(=O)N[C@@H](C)C(=O)N[C@@H](CC(C)C)C(=O)N[C@H](C(=O)N[C@@H](CO)C(=O)N[C@@H](Cc1c[nH]c2ccccc12)C(=O)N[C@H](C(=O)N[C@@H](CCCCN)C(=O)N[C@@H](CCCNC(=N)N)C(=O)N[C@@H](CCCCN)C(=O)N[C@@H](CCCNC(=N)N)C(=O)N[C@@H](CCC(N)=O)C(=O)N[C@@H](CCC(N)=O)C(N)=O)[C@@H](C)CC)[C@@H](C)CC)[C@@H](C)O)[C@@H](C)O)C(C)C)C(C)C [melittin, Melittin] | did not give significant increase | – |
| Cecropin P1 (SWLSKTAKKLENSAKKRISEGIAIAIQGGPR; Cecropin P1; listed as Ascaris suum) | – | increase of the target DNA available for the isothermal amplification (target DNA; on average): 6 times; inhibitory effect on the amplification reaction (LAMP reaction [2]; among current selection of peptides, compared with pure water (MQ)): lowest inhibitory effect; effect on amplification in urinary sample (LAMP reaction [2]; in comparison of pure urinary sample): enhancing effect |
| MSI-78 | did not give significant increase | – |
| MSI-594 | did not give significant increase | – |
| bombolitin III | did not give significant increase | – |
